In ChEMBL document CHEMBL4699525, “Design and synthesis of new indanol-1,2,3-triazole derivatives as potent antitubercular and antimicrobial agents” (Bioorg Med Chem Lett, 2020):
≈ marks a conversion by molar mass, not a printed value. Calls of active or inactive are those of the source. No cut-off for these calls is given here.

What was measured:
Saccharomyces cerevisiae [1] = experiment: Antifungal activity against Saccharomyces cerevisiae assessed as inhibition of […] growth incubated for overnight by CLSI based method; assay type: functional
Klebsiella aerogenes [2] = experiment: Antibacterial activity against Enterobacter aerogenes assessed as inhibition of bacterial growth incubated for overnight by CLSI based method; assay type: functional
Staphylococcus aureus [3] = experiment: Antibacterial activity against Staphylococcus aureus assessed as inhibition of bacterial growth incubated for 24 hrs by agar well diffusion method; assay type: functional
Pseudomonas aeruginosa = experiment: Antibacterial activity against Pseudomonas aeruginosa assessed as inhibition of bacterial growth incubated for 24 hrs by agar well diffusion method; assay type: functional
Bacillus subtilis = experiment: Antibacterial activity against Bacillus subtilis assessed as inhibition of bacterial growth incubated for 24 hrs by agar well diffusion method; assay type: functional
Saccharomyces cerevisiae [4] = experiment: Antifungal activity against Saccharomyces cerevisiae assessed as inhibition of fungal growth incubated for 24 hrs by agar well diffusion method; assay type: functional
[5] = biological target: T1, Enoyl-[acyl-carrier-protein] reductase [NADH] (Mycobacterium tuberculosis) (UniProt P9WGR1); experiment: Inhibition of InhA in Mycobacterium tuberculosis H37Rv assessed antitubercular activity by measuring inhibition of bacterial growth incubated for 7 days by MABA assay; details: time 7.0 day
T1 sequence (whole entry): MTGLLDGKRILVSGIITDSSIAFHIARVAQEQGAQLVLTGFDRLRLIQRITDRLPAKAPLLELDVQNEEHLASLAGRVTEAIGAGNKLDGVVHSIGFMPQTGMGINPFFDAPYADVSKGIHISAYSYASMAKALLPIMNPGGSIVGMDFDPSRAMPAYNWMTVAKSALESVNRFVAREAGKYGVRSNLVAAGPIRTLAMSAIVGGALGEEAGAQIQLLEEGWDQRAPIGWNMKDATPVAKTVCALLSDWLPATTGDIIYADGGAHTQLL

Candida albicans [6] = experiment: Antifungal activity against Candida albicans assessed as inhibition of fungal growth incubated for 24 hrs by agar well diffusion method; assay type: functional
Candida albicans [7] = experiment: Antifungal activity against Candida albicans assessed as inhibition of […] growth incubated for overnight by CLSI based method; assay type: functional
Staphylococcus aureus [8] = experiment: Antibacterial activity against Staphylococcus aureus assessed as inhibition of bacterial growth incubated for overnight by CLSI based method; assay type: functional
Shigella boydii [9] = experiment: Antibacterial activity against Shigella boydii assessed as inhibition of bacterial growth incubated for 24 hrs by agar well diffusion method; assay type: functional
Bacillus cereus = experiment: Antibacterial activity against Bacillus cereus assessed as inhibition of bacterial growth incubated for 24 hrs by agar well diffusion method; assay type: functional
Aspergillus niger [10] = experiment: Antifungal activity against Aspergillus niger assessed as inhibition of […] growth incubated for overnight by CLSI based method; assay type: functional
Escherichia coli = experiment: Antibacterial activity against Escherichia coli assessed as inhibition of bacterial growth incubated for 24 hrs by agar well diffusion method; assay type: functional
[11] = tested on: Salmonella enterica subsp. enterica serovar Abony; experiment: Antibacterial activity against Salmonella abony assessed as inhibition of bacterial growth incubated for 24 hrs by agar well diffusion method; assay type: functional
Shigella boydii [12] = experiment: Antibacterial activity against Shigella boydii assessed as inhibition of bacterial growth incubated for overnight by CLSI based method; assay type: functional
Salmonella typhi = experiment: Antibacterial activity against Salmonella typhi assessed as inhibition of bacterial growth incubated for 24 hrs by agar well diffusion method; assay type: functional, Salmonella enterica subsp. enterica serovar Typhi
Aspergillus niger [13] = experiment: Antifungal activity against Aspergillus niger assessed as inhibition of fungal growth incubated for 24 hrs by agar well diffusion method; assay type: functional
Klebsiella aerogenes [14] = experiment: Antibacterial activity against Enterobacter aerogenes assessed as inhibition of bacterial growth incubated for 24 hrs by agar well diffusion method; assay type: functional
[15] = Cytotoxicity against human HEK293 cells assessed as inhibition of cell growth at 25 uM incubated for 48 hrs by MTT assay; assay type: cell-based
[16] = Salmonella enterica subsp. enterica serovar Typhi

| SMILES | MIC (Saccharomyces cerevisiae [1]) | MIC (Klebsiella aerogenes [2]) | diameter of the inhibition zone (DIZ) (Staphylococcus aureus [3]) | diameter of the inhibition zone (DIZ) (Pseudomonas aeruginosa) | diameter of the inhibition zone (DIZ) (Bacillus subtilis) | diameter of the inhibition zone (DIZ) (Saccharomyces cerevisiae [4]) | MIC [5] | diameter of the inhibition zone (DIZ) (Candida albicans [6]) | MIC (Candida albicans [7]) | MIC (Staphylococcus aureus [8]) | diameter of the inhibition zone (DIZ) (Shigella boydii [9]) | diameter of the inhibition zone (DIZ) (Bacillus cereus) | MIC (Aspergillus niger [10]) | diameter of the inhibition zone (DIZ) (Escherichia coli) | diameter of the inhibition zone (DIZ) [11] | MIC (Shigella boydii [12]) | diameter of the inhibition zone (DIZ) (Aspergillus niger [13]) | diameter of the inhibition zone (DIZ) (Klebsiella aerogenes [14]) | inhibition at 48 h, 25 µM [15] | diameter of the inhibition zone (DIZ) (Salmonella typhi; [16]) | also measured |
| --- | --- | --- | --- | --- | --- | --- | --- | --- | --- | --- | --- | --- | --- | --- | --- | --- | --- | --- | --- | --- | --- |
| Brc1cccc(-n2cc(COc3ccc4c(c3)CCC4)nn2)c1 | 160 µg/mL (≈ 432 µM) | 150 µg/mL (≈ 405 µM) | 19 mm | 14 mm | 17 mm | 7 mm | > 25 µM | 14 mm | 100 µg/mL (≈ 270 µM) | 100 µg/mL (≈ 270 µM) | 20 mm | 10 mm | 190 µg/mL (≈ 513 µM) | 15 mm | 14 mm | 130 µg/mL (≈ 351 µM) | 6 mm | 16 mm | – | – | diameter of the inhibition zone (DIZ) (Salmonella typhi): 8 mm |
| Fc1ccccc1-n1cc(COc2ccc3c(c2)CCC3)nn1 | – | – | 15 mm | inactive | inactive | 10 mm | 6.25 µM (≈ 1.93 µg/mL) | 9 mm | – | – | inactive | inactive | – | inactive | inactive | – | inactive | inactive | 21% | inactive | – |
| O=C(Cn1cc(COc2ccc3c(c2)CCC3)nn1)Nc1ccccc1 | 110 µg/mL (≈ 316 µM) | 80 µg/mL (≈ 230 µM) | 23 mm | 10 mm | 12 mm | 12 mm | > 25 µM | 13 mm | 85 µg/mL (≈ 244 µM) | 140 µg/mL (≈ 402 µM) | 11 mm | 12 mm | 170 µg/mL (≈ 488 µM) | 11 mm | 11 mm | 130 µg/mL (≈ 373 µM) | 9 mm | 16 mm | – | – | diameter of the inhibition zone (DIZ) (Salmonella typhi): 12 mm |
| OC(Cn1cncn1)(Cn1cncn1)c1ccc(F)cc1F [FLUCONAZOLE] | 12 µg/mL (≈ 39.2 µM) | – | – | – | – | 30 mm | – | 30 mm | 25 µg/mL (≈ 81.6 µM) | – | – | – | 8 µg/mL (≈ 26.1 µM) | – | – | – | 30 mm | – | – | – | – |
| O=[N+]([O-])c1cccc(-n2cc(COc3ccc4c(c3)CCC4)nn2)c1 | 180 µg/mL (≈ 535 µM) | 70 µg/mL (≈ 208 µM) | 8 mm | 11 mm | 12 mm | 7 mm | > 25 µM | 12 mm | 125 µg/mL (≈ 372 µM) | 165 µg/mL (≈ 491 µM) | 10 mm | 13 mm | 220 µg/mL (≈ 654 µM) | 12 mm | 8 mm | 90 µg/mL (≈ 268 µM) | 6 mm | 14 mm | – | – | diameter of the inhibition zone (DIZ) (Salmonella typhi): 8 mm |
| c1ccc(-n2cc(COc3ccc4c(c3)CCC4)nn2)cc1 | – | – | 7 mm | inactive | inactive | 8 mm | 25 µM (≈ 7.28 µg/mL) | 12 mm | – | – | inactive | inactive | – | inactive | inactive | – | inactive | inactive | 23.4% | inactive | – |
| COc1ccccc1-n1cc(COc2ccc3c(c2)CCC3)nn1 | – | – | 10 mm | inactive | inactive | inactive | 12.5 µM (≈ 4.02 µg/mL) | 10 mm | – | – | inactive | inactive | – | inactive | inactive | – | inactive | inactive | 19.8% | inactive | – |
| Cc1cc(C)c(-n2cc(COc3ccc4c(c3)CCC4)nn2)c(C)c1 | – | – | inactive | inactive | inactive | inactive | 6.25 µM (≈ 2.08 µg/mL) | inactive | – | – | inactive | inactive | – | inactive | inactive | – | inactive | inactive | 16.6% | inactive | – |
| COc1cccc(-n2cc(COc3ccc4c(c3)CCC4)nn2)c1 | – | – | 12 mm | 9 mm | inactive | inactive | 12.5 µM (≈ 4.02 µg/mL) | 12 mm | – | – | 13 mm | inactive | – | 10 mm | 11 mm | – | – | inactive | 25.8% | – | – |
| CN(C)[C@@H]1C(O)=C(C(N)=O)C(=O)[C@@]2(O)C(O)=C3C(=O)c4c(O)cccc4[C@@](C)(O)[C@H]3C[C@@H]12 [TETRACYCLINE] | – | 30 µg/mL (≈ 67.5 µM) | 29 mm | 32 mm | 32 mm | – | – | – | – | 20 µg/mL (≈ 45 µM) | 34 mm | 33 mm | – | 29 mm | 32 mm | 20 µg/mL (≈ 45 µM) | – | 33 mm | – | – | diameter of the inhibition zone (DIZ) (Salmonella typhi): 33 mm |
| Brc1ccc(-n2cc(COc3ccc4c(c3)CCC4)nn2)cc1 | – | – | inactive | inactive | inactive | 7 mm | > 25 µM | 11 mm | – | – | inactive | inactive | – | 8 mm | inactive | – | inactive | inactive | – | inactive | – |
| Cc1cccc(-n2cc(COc3ccc4c(c3)CCC4)nn2)c1 | – | – | 6 mm | inactive | inactive | 13 mm | 12.5 µM (≈ 3.82 µg/mL) | 10 mm | – | – | inactive | inactive | – | inactive | inactive | – | inactive | inactive | 23.4% | inactive | – |
| Clc1ccc(-n2cc(COc3ccc4c(c3)CCC4)nn2)cc1 | – | – | 8 mm | inactive | inactive | 8 mm | > 25 µM | 10 mm | – | – | inactive | inactive | – | inactive | inactive | – | inactive | inactive | – | inactive | – |
